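Tested at 5 concentrations; 48 h exposure; 96-well plates; endpoints linearly interpolated, else capped at highest concentration. GI50 is the concentration that inhibits growth by half.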 Activity calls are given as the source filed them. Rule as the data show it: active = GI50 up to about 1.1 µM and inactive = higher.
Tests used:
Experiment in all cases: DTP human tumour cell line panel, 48 h
[1] = tested on: 786-0
[2] = tested on: A498
[3] = tested on: A549
[4] = tested on: ACHN
[5] = tested on: BT-549
[6] = tested on: CAKI-1
[7] = tested on: CCRF-CEM
[8] = tested on: COLO 205
[9] = tested on: DU-145
[10] = tested on: EKVX
[11] = tested on: HCC 2998
[12] = tested on: HCT-116
[13] = tested on: HCT-15
[14] = tested on: HL-60
[15] = tested on: HOP-62
[16] = tested on: HOP-92
[17] = tested on: HT-29
[18] = tested on: Hs-578T
[19] = tested on: IGROV-1
[20] = tested on: K562
[21] = tested on: KM12
[22] = tested on: LOX IMVI
[23] = tested on: M14
[24] = tested on: MCF7
[25] = tested on: MDA-MB-231
[26] = tested on: MDA-MB-435
[27] = tested on: MDA-N
[28] = tested on: MOLT-4
[29] = tested on: Malme-3M
[30] = tested on: NCI-H226
[31] = tested on: NCI-H23
[32] = tested on: NCI-H460
[33] = tested on: NCI-H522
[34] = tested on: NCI/ADR-RES
[35] = tested on: OVCAR-3
[36] = tested on: OVCAR-4
[37] = tested on: OVCAR-5
[38] = tested on: OVCAR-8
[39] = tested on: PC-3
[40] = tested on: RPMI-8226
[41] = tested on: RXF 393
[42] = tested on: SF-268
[43] = tested on: SF-295
[44] = tested on: SF-539
[45] = tested on: SK-MEL-28
[46] = tested on: SK-MEL-2
[47] = tested on: SK-MEL-5
[48] = tested on: SK-OV-3
[49] = tested on: SN12C
[50] = tested on: SNB-19
[51] = tested on: SNB-75
[52] = tested on: SR
[53] = tested on: SW-620
[54] = tested on: T47D
[55] = tested on: TK-10
[56] = tested on: U-251
[57] = tested on: UACC-257
[58] = tested on: UACC-62
[59] = tested on: UO-31
[60] = tested on: DLD-1
[61] = tested on: DMS-114
[62] = tested on: DMS-273
[63] = tested on: HOP-18
[64] = tested on: KM-20L2
[65] = tested on: LXFL 529
[66] = tested on: M19-MEL
[67] = tested on: SNB-78

Measured: GI50

COc1ccc2oc(=O)c(-c3nc4ccccc4o3)cc2c1
inactive: [1] > 100 µM | [2] 67.9 µM | [3] > 100 µM | [4] > 100 µM | [5] > 100 µM | [6] > 100 µM | [7] > 100 µM | [8] 81.7 µM | [9] > 100 µM | [10] > 100 µM | [11] 55 µM | [12] > 100 µM | [14] 29.9 µM | [15] 64.9 µM | [16] > 100 µM | [17] > 100 µM | [18] > 100 µM | [19] > 100 µM | [20] 69.5 µM | [21] 27.4 µM | [22] > 100 µM | [23] > 100 µM | [24] 32.7 µM | [25] 32.7 µM | [26] 16.7 µM | [27] 29.1 µM | [28] > 100 µM | [29] > 100 µM | [30] > 100 µM | [31] > 100 µM | [32] 74 µM | [33] 50.2 µM | [34] 40.5 µM | [35] 59.4 µM | [36] > 100 µM | [37] > 100 µM | [38] > 100 µM | [39] > 100 µM | [40] 98.2 µM | [41] 53.3 µM | [42] > 100 µM | [43] 61.7 µM | [44] > 100 µM | [45] > 100 µM | [46] > 100 µM | [47] 39.1 µM | [48] > 100 µM | [49] > 100 µM | [50] > 100 µM | [51] 55.1 µM | [52] 5.25 µM | [53] > 100 µM | [54] 58.2 µM | [55] > 100 µM | [56] > 100 µM | [57] > 100 µM | [58] 65 µM | [59] > 100 µM
59 µM: [13]

O=C1c2ccccc2C2(O)Nc3c(ccc4ccccc34)C12O (centres undefined)
inactive: [1] > 100 µM | [2] > 100 µM | [3] > 100 µM | [4] > 100 µM | [6] > 100 µM | [7] 55.3 µM | [8] > 100 µM | [60] > 100 µM | [61] 60 µM | [62] > 100 µM | [10] > 100 µM | [11] > 100 µM | [12] > 100 µM | [14] 97.1 µM | [63] > 100 µM | [15] > 100 µM | [17] > 100 µM | [19] > 100 µM | [20] 61.4 µM | [64] > 100 µM | [21] 87.1 µM | [22] > 100 µM | [65] 67.8 µM | [23] > 100 µM | [66] > 100 µM | [28] 39 µM | [29] > 100 µM | [30] > 100 µM | [31] > 100 µM | [32] > 100 µM | [33] 95.5 µM | [35] 99.5 µM | [36] > 100 µM | [37] > 100 µM | [38] > 100 µM | [40] > 100 µM | [41] > 100 µM | [42] > 100 µM | [43] > 100 µM | [44] > 100 µM | [45] > 100 µM | [46] > 100 µM | [47] 72.8 µM | [48] > 100 µM | [49] > 100 µM | [50] 85.3 µM | [51] > 100 µM | [67] > 100 µM | [53] > 100 µM | [55] > 100 µM | [56] > 100 µM | [57] > 100 µM | [58] > 100 µM | [59] 95.5 µM
> 100 µM: [13]

— ChEMBL document CHEMBL1201862, “PubChem BioAssay data set” (2004)
